In patent US8642622B2, “Piperidinyl compound as a modulator of chemokine receptor activity” (Bristol-Myers Squibb Company, priority 2010, dated 2014):

Tests used:
[1] = Electrocardiography in anesthetized rabbits (rabbit in vivo EP effect)
Description: A dose-response study of test compound was conducted in anesthetized rabbits to assess the cardiac electrophysiologic profile established in the cellular ion channel assays.
Experiments were performed in propofol-fentanyl anesthetized closed-chest male rabbits. A body surface electrocardiogram (ECG) and an intra-cardiac His-bundle electrogram were continuously monitored and recorded during the studies, using a PoNeMah system and a Prucka electrophysiological recording system, respectively. Test compound was prepared on the day of study in a vehicle of PEG400:ethanol:water (1:1:1) at a dosing concentration of 30 mg/mL. Test compound (n=3) or vehicle (n=3) was given intravenously over 5 minutes via an infusion pump at incremental doses of 3, 10 and 30 mg/kg. The interval between doses was 10 minutes, allowing for a 5-minute test agent infusion and a 5-minute rest period. Blood was sampled at baseline (pre-drug infusion) and immediately at the end of each infusion. For the 30 mg/kg dose, additional blood samples were taken at 10, 20 and 30 minutes after the end of infusion.
PR interval, QRS duration and QT interval were averaged from a 1 minute ECG recording period at time of blood sampling. QT interval was corrected for heart rate effects using both Fridericia (QTcf) and Van der Water (QTcv) formulae. AH and HV intervals, representing A-V node conduction and His-Purkinje conduction, respectively, were assessed by manual measurements from the His-bundle electrogram. Data were expressed as percent change from pre-drug baseline (mean±SEM) for PR, QRS, AH and HV intervals as well as delta change from the pre-drug infusion baseline (mean±SEM) for QTc intervals. Changes of 10% in PR, QRS, and AH intervals, and 20% in HV interval, as well as >10 ms in QTc interval are considered significant based on experience with the model.

[2] = Single-dose pharmacokinetics in rats; format: in vivo; settings: male, Sprague-Dawley, rat, plasma; for bioavailability: po
Description: Serial blood samples were collected for all studies from the jugular vein at various time points post dose (0.17 (or 0.25 for oral), 0.5, 0.75, 1, 2, 4, 6, 8 and 24 h, for example). Plasma samples were analyzed by LC-MS/MS.
Additional studies evaluating suspensions of crystalline drug substance in aqueous medium were performed as described above.

[3] = Single-dose pharmacokinetics in dogs; format: in vivo; settings: male, beagle, dog, plasma
Description: Serial blood samples were collected for all studies at various time points post dose (0.17 (or 0.25 for oral), 0.5, 0.75, 1, 2, 4, 6, 8 and 24 h, for example). Plasma samples were analyzed by LC-MS/MS.

[4] = target: T1, human cardiac sodium channel, SCNSA (Homo sapiens, UniProt Q14524); experiment: Sodium channel whole-cell patch-clamp assay; format: cell-based; settings: HEK293, HEK-293, protein-free buffer, read-out: Na channel, % inh
T1 construct: expressed in transfected cells; host or cells: HEK-293
T1 sequence (Q14524 whole entry): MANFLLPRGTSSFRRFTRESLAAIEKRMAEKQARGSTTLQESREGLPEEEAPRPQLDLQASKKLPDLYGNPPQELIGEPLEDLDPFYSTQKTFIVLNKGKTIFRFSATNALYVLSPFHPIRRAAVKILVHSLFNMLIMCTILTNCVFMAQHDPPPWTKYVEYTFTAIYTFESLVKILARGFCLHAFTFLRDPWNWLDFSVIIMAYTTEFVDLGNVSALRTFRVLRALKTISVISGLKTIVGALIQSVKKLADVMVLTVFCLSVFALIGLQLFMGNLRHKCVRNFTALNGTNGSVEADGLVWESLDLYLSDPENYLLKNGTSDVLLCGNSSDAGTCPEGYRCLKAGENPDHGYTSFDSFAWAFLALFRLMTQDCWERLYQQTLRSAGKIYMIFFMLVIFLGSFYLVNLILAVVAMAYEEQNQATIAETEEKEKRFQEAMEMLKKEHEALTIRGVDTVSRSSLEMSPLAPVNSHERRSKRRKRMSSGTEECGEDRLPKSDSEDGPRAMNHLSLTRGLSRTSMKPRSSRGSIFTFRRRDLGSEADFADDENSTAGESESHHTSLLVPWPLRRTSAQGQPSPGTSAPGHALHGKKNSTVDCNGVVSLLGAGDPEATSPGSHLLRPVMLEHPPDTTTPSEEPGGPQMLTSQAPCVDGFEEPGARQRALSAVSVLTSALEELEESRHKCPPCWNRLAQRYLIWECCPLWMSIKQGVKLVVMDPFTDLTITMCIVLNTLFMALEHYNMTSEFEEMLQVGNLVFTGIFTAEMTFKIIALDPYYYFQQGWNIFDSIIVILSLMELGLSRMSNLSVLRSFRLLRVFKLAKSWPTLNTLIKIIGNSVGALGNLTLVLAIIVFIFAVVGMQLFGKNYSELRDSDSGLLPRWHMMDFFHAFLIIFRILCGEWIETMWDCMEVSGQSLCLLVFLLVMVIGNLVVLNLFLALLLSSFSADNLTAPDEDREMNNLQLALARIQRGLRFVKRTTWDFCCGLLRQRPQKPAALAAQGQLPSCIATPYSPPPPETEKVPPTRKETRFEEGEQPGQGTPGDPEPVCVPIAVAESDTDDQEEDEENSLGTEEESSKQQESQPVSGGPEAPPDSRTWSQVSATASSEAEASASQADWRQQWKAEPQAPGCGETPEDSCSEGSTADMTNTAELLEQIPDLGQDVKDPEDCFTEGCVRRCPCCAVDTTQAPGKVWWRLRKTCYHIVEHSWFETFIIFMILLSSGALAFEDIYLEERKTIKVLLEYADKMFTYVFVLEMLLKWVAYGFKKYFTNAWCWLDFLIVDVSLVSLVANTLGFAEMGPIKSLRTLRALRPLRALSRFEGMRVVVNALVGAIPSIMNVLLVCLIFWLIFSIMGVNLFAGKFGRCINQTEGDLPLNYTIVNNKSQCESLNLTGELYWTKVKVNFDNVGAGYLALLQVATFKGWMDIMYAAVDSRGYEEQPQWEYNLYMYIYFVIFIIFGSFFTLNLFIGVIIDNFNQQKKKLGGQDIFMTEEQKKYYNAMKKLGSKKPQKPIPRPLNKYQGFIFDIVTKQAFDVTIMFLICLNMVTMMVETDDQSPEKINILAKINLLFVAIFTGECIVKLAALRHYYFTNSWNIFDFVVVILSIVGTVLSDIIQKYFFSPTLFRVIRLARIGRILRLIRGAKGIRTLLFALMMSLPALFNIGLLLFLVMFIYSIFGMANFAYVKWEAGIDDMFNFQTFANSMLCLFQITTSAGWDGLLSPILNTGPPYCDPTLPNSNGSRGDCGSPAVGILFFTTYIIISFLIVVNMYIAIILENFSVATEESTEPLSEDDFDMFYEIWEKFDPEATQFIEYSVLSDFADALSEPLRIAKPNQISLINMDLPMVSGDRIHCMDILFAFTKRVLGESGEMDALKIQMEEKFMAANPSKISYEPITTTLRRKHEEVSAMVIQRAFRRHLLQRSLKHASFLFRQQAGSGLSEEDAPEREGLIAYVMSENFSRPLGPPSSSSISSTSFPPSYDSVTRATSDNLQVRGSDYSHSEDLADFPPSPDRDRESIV
Description: Whole-cell patch-clamp was used to directly measure inward sodium currents in HEK-293 cells expressing the human cardiac sodium channel, SCNSA. After reach steady-state effect in the presence of drug, rate-dependence was assessed by stimulation at frequencies of 1 Hz and 4 Hz. Experiments were carried out using an aqueous buffer at pH 7.4 and at room temperature. There is no protein in the buffer and drug concentrations reported are nominal free drug levels. Test article was evaluated up to 10 μM (protein-free buffer). […] Data is reported as percent inhibition at a fixed concentration.

SMILES: CC(C)[C@@H](NC(=O)c1cccc(S(N)(=O)=O)c1)C(=O)N1CC[C@](O)(c2ccc(Cl)cc2)C(C)(C)C1 [Example 491]
- Cmax: Free drug (at NOEL dose) ([1]; at NOEL dose, free drug): 3.1 µM
- Cmax: Free drug (at QT effect dose) ([1]; at QT effect dose, free drug): 5.5 µM
- NOEL dose ([1]; i.v. infusion): 10 mg/kg
- QT effect Dose ([1]; i.v. infusion 3, 10, 30 mg/kg): 30 mg/kg
- QTcf, delta ([1]; i.v. infusion, change from pre-drug baseline): +17 ms
- clearance ([2]; intravenous): 67 mL/min/kg
- bioavailability ([2]; crystalline suspension in aqueous medium, read-out: Relative bioavailability when dosed as a crystalline suspension): 0%
- bioavailability ([2]; oral solution, read-out: Rat oral bioavailability when dosed as solution): 23%
- clearance ([3]; intravenous): 7.9 mL/min/kg
- bioavailability ([3]; oral solution, read-out: dog oral bioavailability when dosed as solution): 100%
- inhibition at 10 µM [4]: 13%
